# Laboratory results published in US9481648B2, “Kinase inhibitors” (Respivert Limited, priority 2013, dated 2016).
# Biological target: GSK 3α (Homo sapiens (Human), UniProt P49840)
# Experiment: GSK 3α enzyme inhibition (FRET, Z-LYTE; Method 2)
# Format: biochemical
# Conditions: read-out: IC50 Values for Enzyme Inhibition GSK3α
# Method: The enzyme inhibitory activities of compounds disclosed herein are determined by FRET using synthetic peptides labelled with both donor and acceptor fluorophores (Z-LYTE, Invitrogen Ltd., Paisley, UK).
# The inhibitory activities of compounds of the invention against the GSK 3α enzyme isoform (Invitrogen), are evaluated by determining the level of activation I phosphorylation of the target peptide. The GSK3-α protein (500 ng/mL, 2.5 μL) is mixed with the test compound (2.5 μL at either 4 μg/mL, 0.4 μg/mL, 0.04 μg/mL, or 0.004 μg/mL) for 2 hr at RT. The FRET peptide (8 μM, 2.5 μL), which is a phosphorylation target for GSK3α, and ATP (40 μM, 2.5 μL) are then added to the enzyme\compound mixture and the resulting mixture incubated for 1 hr. Development reagent (protease, 5 μL) is added for 1 hr prior to detection in a fluorescence microplate reader (Varioskan® Flash, ThermoFisher Scientific).
# In all cases, the site-specific protease cleaves non-phosphorylated peptide only and eliminates the FRET signal. Phosphorylation levels of each reaction are calculated using the ratio of coumarin emission (donor) over fluorescein emission (acceptor), for which high ratios indicate high phosphorylation and low ratios indicate low phosphorylation levels.
# This method follows the same steps as Method 1 above, but utilises a shorter period of mixing of the test compound (105 minutes instead of 2 hours) with the GSK3-α protein. In addition, the concentrations of test compound employed are either 10 μg/mL, 1 μg/mL, 0.1 μg/mL, or 0.01 μg/mL
# Chain of GSK 3α (P49840 whole entry): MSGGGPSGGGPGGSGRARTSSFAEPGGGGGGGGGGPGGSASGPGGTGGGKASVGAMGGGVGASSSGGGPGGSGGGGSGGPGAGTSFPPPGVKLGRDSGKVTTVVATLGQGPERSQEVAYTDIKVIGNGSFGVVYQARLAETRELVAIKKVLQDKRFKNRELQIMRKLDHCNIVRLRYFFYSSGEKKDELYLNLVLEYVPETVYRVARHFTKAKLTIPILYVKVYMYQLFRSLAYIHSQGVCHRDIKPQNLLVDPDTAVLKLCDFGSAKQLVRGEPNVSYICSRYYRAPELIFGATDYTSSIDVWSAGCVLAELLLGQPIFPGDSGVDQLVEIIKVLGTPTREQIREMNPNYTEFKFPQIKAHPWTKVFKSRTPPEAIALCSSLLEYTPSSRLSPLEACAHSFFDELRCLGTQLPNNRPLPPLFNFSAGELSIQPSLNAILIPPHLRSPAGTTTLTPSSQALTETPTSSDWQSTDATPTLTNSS
smiles,measurement,value
"COc1cc(Nc2cc(Oc3ccc(NC(=O)Nc4cc(C(C)(C)C)cc(NS(C)(=O)=O)c4OC)c4ccccc34)ccn2)cc(C(=O)NCCN2CCCC2)c1 [83(d), 3-((4-((4-(3-(5-(tert-butyl)-2-methoxy-3-(methysulfonamido)phenyl)ureido)naphthalen-1-yl)oxy)pyridin-2-yl)amino)-5-methoxy-N-(2-(pyrrolidin-1-yl)ethyl)benzamide]",IC50,1020 nM
"COc1cc(Nc2cc(Oc3ccc(NC(=O)Nc4cc(C(C)(C)C)cc(NS(C)(=O)=O)c4OC)c4ccccc34)ccn2)cc(C(=O)NCCN2CCCCC2)c1 [83(e), 3-((4-((4-(3-(5-(tert-butyl)-2-methoxy-3-(methylsulfonamido)phenyl)ureido)naphthalen-1-yl)oxy)pyridin-2-yl)amino)-5-methoxy-N-(2-(piperidin-1-yl)ethyl)benzamide]",IC50,1590 nM
"COc1c(NC(=O)Nc2ccc(Oc3ccnc(Nc4ccccc4)c3)c3ccccc23)cc(C(C)(C)C)cc1NS(=O)(=O)N1CCOCC1 [83(f), N-(5-(tert-butyl)-2-methoxy-3-(3-(4-((2-(phenylamino)pyridin-4-yl)oxy)naphthalen-1-yl)ureido)phenyl)morpholine-4-sulfonamide]",IC50,14400 nM
"COCCOCCOCCOc1cc(Nc2cc(Oc3ccc(NC(=O)Nc4cc(C(C)(C)C)cc(C(=O)NCCN)c4OC)c4ccccc34)ccn2)cc(OC)c1 [83(g), N-(2-aminoethyl)-5-(tert-butyl)-2-methoxy-3-(3-(4-((2-((3-methoxy-5-(2-(2-(2-methoxy-ethoxy)ethoxy)ethoxy)phenyl)amino)pyridin-4-yl)oxy)naphthalen-1-yl)ureido)benzamide]",IC50,2200 nM
"COc1c(NC(=O)Nc2ccc(Oc3ccnc(Nc4ccccc4)c3)c3ccccc23)cc(C(C)(C)C)cc1C(=O)NC1CCN(C)CC1 [84(b), 3-[[4-[(2-Anilino-4-pyridyl)oxy]-1-naphthyl]carbamoylamino]-5-tert-butyl-2-methoxy-N-(1-methyl-4-piperidyl)benzamide]",IC50,4510 nM
"COc1c(NC(=O)Nc2ccc(Oc3ccnc(Nc4ccccc4)c3)c3ccccc23)cc(C(C)(C)C)cc1C(=O)N[C@@H]1CCOC1 [84(c), 3-[[4-[(2-Anilino-4-pyridyl)oxy]-1-naphthyl]carbamoylamino]-5-tert-butyl-2-methoxy-N-[(3R)-tetrahydrofuran-3-yl]benzamide]",IC50,4950 nM
"COc1cc(CO)cc(Nc2cc(Oc3ccc(NC(=O)Nc4cc(C(C)(C)C)cc(NS(C)(=O)=O)c4OC)c4ccccc34)ccn2)c1 [84(f), 1-[5-tert-Butyl-3-(methanesulfonamido)-2-methoxyphenyl]-3-[4-[[2-[3-(hydroxymethyl)-5-methoxyanilino]-4-pyridyl]oxy]-1-naphthyl]urea]",IC50,3400 nM
"C#Cc1cc(Nc2nccc(Oc3ccc(NC(=O)Nc4cc(C(C)(C)C)cc(C(N)=O)c4OC)c4ccccc34)n2)cc(C(=O)NCCN2CCOCC2)c1 [85(g), 5-tert-Butyl-3-[[4-[2-[3-ethynyl-5-(2-morpholinoethylcarbamoyl)anilino]-pyrimidin-4-yl]oxy-1-naphthyl]carbamoylamino]-2-methoxy-benzamide]",IC50,437 nM
"COc1cc(Nc2cc(Oc3ccc(NC(=O)Nc4cc(C(C)(C)C)cc(NS(C)(=O)=O)c4OC)c4ccccc34)ccn2)cc(C(=O)NCCN2CC[S+]([O-])CC2)c1 [85(j), 3-[[4-[[4-[[5-tert-Butyl-3-(methanesulfonanido)-2-methoxyphenyl]-carbamoylamino]-1-naphthyl]oxy]-2-pyridyl]amino]-5-methoxy-N-[2-(1-oxo-1,4-thiazinan-4-yl)ethyl]benzamide]",IC50,736 nM
"COCCOCCOCCOc1cc(Nc2nccc(Oc3ccc(NC(=O)Nc4cc(C(C)(C)C)ccc4OC)c4ccccc34)n2)cc(OC)c1 [Example 8, 1-(5-(tert-Butyl)-2-methoxhenv)-3-(4-((2-((3-methoxy-5-(2-(2-(2-methoxyethoxy)ethoxy)-ethoxy)phenyl)amino)pyrimidin-4-yl)oxy)naphthalen-1-yl)urea]",IC50,9940 nM
"COCCOCCOCCOc1cc(Nc2nccc(Oc3ccc(NC(=O)Nc4cc(N5CCOCC5)ccc4OC)c4ccccc34)n2)cc(OC)c1 [Example 12, 1-(4-((2-((3-Methoxy-5-(2-(2-(2-methoxyethoxy)ethoxy)ethoxy)phenyl)amino)-pyrmidin-4-yl)oxy)naphthalen-1-yl)-3-(2-methoxy-5-morpholinophenyl)urea]",IC50,11300 nM
"COCCOCCOCCOc1cc(Nc2nccc(Oc3ccc(NC(=O)Nc4cc(C(C)(C)C)cc(C(=O)N(C)C)c4OC)c4ccccc34)n2)cc(OC)c1 [Example 19, 5-(tert-yl)-)-2-methoxy-3-(3-(4-((2-((3-methoxy-5-(2-(2-(2-methoxyethoxy)ethoxy)-ethoxy)phenyl)amino)pyrimidin-4-yl)oxy)naphthalen-1-yl)ureido-N,N-dimethylbenzamide]",IC50,4430 nM
"COCCOCCOCCOc1cc(Nc2nccc(Oc3ccc(NC(=O)Nc4cc(C(C)(C)C)cc(C(=O)O)c4OC)c4ccccc34)n2)cc(OC)c1 [Example 21, 5-(tert-Butyl)-2-methoxy-3-(3-(4-((2-((3-methoxy-5-(2-(2-(2-methoxyethoxy)ethoxy)-ethoxy)phenyl)amino)pyrimidin-4-yl)oxy)naphthalen-1-yl)ureido)benzoic acid]",IC50,1630 nM
"COCCOCCOCCOc1cc(Nc2nccc(Oc3ccc(NC(=O)Nc4cc(C(C)(C)C)cc(C#N)c4OC)c4ccccc34)n2)cc(OC)c1 [Example 22, 1-(5-(tert-Butyl)-3-cyano-2-methoxyphenyl)-3-(4-((2-((3-methoxy-5-(2-(2-(2-methoxy-ethoxy)ethoxy)ethoxy)phenyl)amino)pyrimidin-4-yl)oxy)naphthalen-1-yl)urea]",IC50,2140 nM
"COCCOCCOCCOc1cc(Nc2nccc(Oc3ccc(NC(=O)Nc4cc(C(C)(C)C)cc(N)c4OC)c4ccccc34)n2)cc(OC)c1 [Example 25, 1-(3-Amino-5-(tert-butyl)-2-methoxyphenyl)-3-(4-((2-((3-methoxy-5-(2-(2-(2-methoxy-ethoxy)ethoxy)ethoxy)phenyl)amino)pyrimidin-4-yl)oxy)naphthalen-1-yl)urea]",IC50,1890 nM
COc1cc(Nc2nccc(Oc3ccc(NC(=O)Nc4cc(C(C)(C)C)cc(NS(C)(=O)=O)c4OC)c4ccccc34)n2)cc(C(=O)NCCOCCOCCC(=O)O)c1 [Example 26],IC50,51 nM
"COCCOCCOCCOc1cc(Nc2nccc(Oc3ccc(NC(=O)Nc4cc(C(C)(C)C)cc(Nc5ncccn5)c4OC)c4ccccc34)n2)cc(OC)c1 [Example 28, 1-(5-(tert-Butyl)-2-methoxy-3-(pyrimidin-2-ylamino)phenyl)-3-(4-((2-((3-methoxy-5-(2-(2-(2-methoxyethoxy)ethoxy)ethoxy)phenyl)amino)pyrimidin-4-yl)oxy)naphthalen-1-yl)urea]",IC50,3210 nM
"COc1cc(Nc2nccc(Oc3ccc(NC(=O)Nc4cc(C(C)(C)C)cc(NS(C)(=O)=O)c4OC)c4ccccc34)n2)cc(OCCOCCOCCC(=O)O)c1 [Example 30, 3-(2-(2-(3-((4-((4-(3-(5-(tert-Butyl)-2-methoxy-3-(methylsulfonamido)phenyl)ureido)-naphthalen-1-yl)oxy)pyrimidin-2-yl)amino)-5-methoxyphenoxy)ethoxy)ethoxy)propanoic acid]",IC50,150 nM
"COc1cc(Nc2nccc(Oc3ccc(NC(=O)Nc4cc(C(C)(C)C)cc(NS(C)(=O)=O)c4OC)c4ccccc34)n2)cc(OCCOCCC(=O)O)c1 [Example 31, 3-(2-(3-((4-((4-(3-(5-(tert-Butyl)-2-methoxy-3-(methylsulfonamido)phenyl)ureido)-naphthalen-1-yl)oxy)pyrimidin-2-yl)amino)-5-methoxyphenoxy)ethoxy)propanoic acid]",IC50,135 nM
"CNC(=O)c1cc(N2CCOCC2)cc(NC(=O)Nc2ccc(Oc3ccnc(Nc4cc(OC)cc(OCCOCCOCCOC)c4)n3)c3ccccc23)c1OC [Example 32, 2-Methoxy-3-(3-(4-((2-((3-methoxy-5(2-(2-(2-methoxyethoxy)ethoxy)ethoxy)phenyl)-amino)pyrimidin-4-yl)oxy)naphthalen-1-yl)ureido)-N-methyl-5-morpholinobenzamide]",IC50,629 nM
"COCCOCCOCCOc1cc(Nc2nccc(Oc3ccc(NC(=O)Nc4cc(C(C)(C)C)cc(C(=O)NCc5ccccc5)c4OC)c4ccccc34)n2)cc(OC)c1 [Example 38, N-Benzyl-5-(tert-butyl)-2-methoxy-3-(3-(4-((2-((3-methoxy-5-(2-(2-(2-methoxyethoxy)-ethoxy)ethoxy)phenyl)amino)pyrimidin-4-yl)oxy)naphthalen-1-yl)ureido)benzamide]",IC50,10700 nM
"COCCOCCOCCOCCOCCOCCOCCNC(=O)c1cc(Nc2nccc(Oc3ccc(NC(=O)Nc4cc(C(C)(C)C)cc(NS(C)(=O)=O)c4OC)c4ccccc34)n2)cc(OC)c1 [Example 40, 3-((4-((4-(3-(5-(tert-Butyl)-2-methoxy-3-(methylsulfonamido)phenyl)ureido)naphthalen-1-yl)oxy)pyrimidin-2-yl)amino)-N-(2,5,8,11,14,17,20-heptaoxadocosan-22-yl)-5-methoxy-benzamide]",IC50,379 nM
"CCNC(=O)c1cc(C(C)(C)C)cc(NC(=O)Nc2ccc(Oc3ccnc(Nc4cc(OC)cc(OCCOCCOCCOC)c4)n3)c3ccccc23)c1OC [Example 41, 5-(tert-Butyl)-N-ethyl-2-methoxy-3-(3-(4-((2-((3-methoxy-5-(2-(2-(2-methoxyethoxy)-ethoxy)ethoxy)phenyl)amino)pyrimidin-4-yl)oxy)naphthalen-1-yl)ureido)benzamide]",IC50,446 nM
